{"source": "patent US20240299353A1", "about": "“COMPOSITIONS AND METHODS FOR TREATING […] 5-MEO-DMT” (Alvarius Pharmaceuticals Ltd., priority 2021, published 2024)", "key": {"G9a": {"test_system": "G9a", "settings": "repeated cocaine; cited from earlier work"}, "[1]": {"test_system": "MAO-A and cytochrome P450 2D6 (CYP2D6)", "settings": "cited from earlier work"}, "[2]": {"settings": "humans, following insufflation; cited from earlier work"}, "pCREB": {"test_system": "pCREB", "experiment": "Western blot of pCREB in brain regions, chronic cocaine ± 5-MeO-DMT", "type": "in vivo, Male Wistar rats", "settings": "for pCREB levels: 24 h", "source_text": "(§1) Male Wistar rats aged 7 weeks were acclimatized to the facility for 1 week prior to the beginning of the study. […] Animals were euthanized 23- or 119-hours following vehicle or 5-MeO-DMT administration.\n(§2) Following euthanasia brain regions of interest were isolated. Briefly, the olfactory bulbs were removed before the brain was placed in a rat brain matrix (FIG. 2A). Sterile blades were inserted at positions 2 and 3 (FIG. 2B) to extract a coronal slice containing the Bregma+˜0.2-+˜2.2 coordinates (FIG. 2C). From this tissue slice a blunted 12 G needle was used to punch dissect the NAc and dorsal striatum (DS) (FIG. 2D-2E) identified using the rat brain atlas (Panxinos and Watson 2nd edition). The PFC, hippocampus (Hip) and amygdala (Amyg) were then blunt dissected (FIG. 3A-3D). All regions were frozen in liquid nitrogen and stored at −80° C. until processed.\n(§3) These treatment groups were used for the molecular assessment of addiction-linked markers.\n(§4) Determination of protein concentration—a bicinchoninic acid assay (BCA, ThermoFisher) was conducted to determine the total protein concentration in tissue lysates following manufacturer's instructions. Briefly, bovine serum albumin (BSA) standards were prepared in a serial dilution (0-2.0 mg protein/ml) and 200 μl working reagent (50:1, reagent A: reagent B) was added to each of the standards and samples in a 96 well plate (Greiner). For tissue lysates a 1:10 dilution was performed with cell lysis buffer to ensure absorbance values lay within the working range established by the standards. All samples and standards were added in duplicate. The plate was covered and incubated for 30 mins at 37° C. before absorbance was read at 562 nm on a plate reader (SpectraMax M3). The absorbance values were used to form a standard curve of known protein concentrations and protein concentration of samples were derived using the equation of the line. All samples were standardized to the lowest protein concentration using distilled H20 (dH2O).\nSDS-PAGE and Western Blotting—Following equalisation of protein concentrations, 6× sample loading buffer (15% SDS, 15% […], 50% glycerol, 0.01% bromophenol blue, […]) was added to each sample using a dilution factor of 1:5 of the total volumes before boiling at 100° C. for 5 mins. Samples were stored at −20° C. until use. One dimensional sodium-dodecyl-sulphate polyacrylamide gel electrophoresis (SDS-PAGE) was used for protein separation based on molecular weight. The percentage of acrylamide in the resolving or stacking gel was determined by the molecular weight of the protein of interest. […] Protein expression was quantified using Image Studio Lite (Version 5.2) and expression intensities were normalized to a house keeping protein, α-Tubulin or β-actin."}, "5-HT1AR": {"molecular_target": "5-HT1AR", "settings": "canonical signaling activity measured; read-out: affinity (Ki) for the 5-HT1AR subtype; cited from earlier work"}, "[3]": {"test_system": "top 10 cocaine-dysregulated biological pathways in the hippocampus", "experiment": "Biological pathway analysis (IPA) of transcriptomics, cocaine-dysregulated pathways", "type": "in vivo, Male Wister rats", "settings": "single treatment", "method": "Animals were then randomly allocated to one of five groups and received a single i.p. injection of one of vehicle, 5 mg/kg 5-Meo-DMT, 0.14 mg/kg LSD, 1 mg/kg psilocybin, or 1 mg/kg DOI. On day 15, animals were euthanised and the hippocampus blunt dissected, snap frozen in liquid nitrogen and stored at −80° C. until further processing.\nSubsequent pathway analyses were done using Ingenuity Pathway Analysis (IPA). Analysis settings for IPA included the Ingenuity Knowledge Base (Genes Only), direct and indirect relationships, and endogenous chemicals of the previously filtered list of differentially expressed genes. IPA was filtered to only consider molecules where the species were human, rat, or mouse and the confidence can be experimentally observed. Canonical pathways were utilized in pathway analysis, where the spreadsheet organized the values of significance to −log(p-value) and the rate of regulation to the z-score. Negative z-score values indicate downregulation and positive values indicate upregulation."}, "[4]": {"settings": "acute administration in animals; cited from earlier work"}, "FosB": {"test_system": "FosB", "experiment": "Western blot of FosB in brain regions, chronic cocaine ± 5-MeO-DMT", "type": "in vivo, Male Wistar rats", "source_text": "as §1, §2, §3, §4\n(§5) SDS-PAGE and Western Blotting—Following equalisation of protein concentrations, 6× sample loading buffer (15% SDS, 15% […], 50% glycerol, 0.01% bromophenol blue, […]) was added to each sample using a dilution factor of 1:5 of the total volumes before boiling at 100° C. for 5 mins. Samples were stored at −20° C. until use. One dimensional sodium-dodecyl-sulphate polyacrylamide gel electrophoresis (SDS-PAGE) was used for protein separation based on molecular weight. The percentage of acrylamide in the resolving or stacking gel was determined by the molecular weight of the protein of interest. In this instance all gels consisted of a 5% stacking gel and a 10% resolving gel with the exception of mGluR5, G9a (8%) and H3K9Me2 (12%). 20 μg of protein was loaded and resolved using SDS-PAGE. Gel electrophoresis was conducted at 80V while the protein was in the stacking gel, once it migrated to the resolving gel the voltage was increased to 120V and ran for 90 mins. Samples were transferred to a 0.45 μm polyvinylidene difluoride (PVDF) membrane (Analab) for 1 hour at 100V and blocked in 5% milk blocking solution made in tris-buffered saline containing tween®-20 (TBS-T, Sigma) for 90 mins. Primary antibodies (FIG. 5) were diluted in 5% BSA in TBS-T and incubated with membranes overnight at 4° C. or for 2 hours at room temperature. After incubation with primary antibodies the membranes were washed in TBS-T for 4×10 minutes before incubation with 1:2000 anti-rabbit and 1:2000 anti-mouse Alexa Fluro® conjugated secondary antibodies (Invitrogen) in 2% milk for 1 hour at room temperature. Membranes were washed in TBS-T for 4×10 minutes and in TBS for 1×10-minute wash. Proteins were visualized using Odyssey® infrared imaging system. Protein expression was quantified using Image Studio Lite (Version 5.2) and expression intensities were normalized to a house keeping protein, α-Tubulin or β-actin."}, "ΔFosB": {"test_system": "ΔFosB", "experiment": "Western blot of ΔFosB in brain regions, chronic cocaine ± 5-MeO-DMT", "type": "in vivo, Male Wistar rats", "source_text": "as §1, §2, §3, §4, §5"}, "[5]": {"settings": "dorsal striatum, 24 h, 5-MeO-DMT alone"}, "[6]": {"settings": "dorsal striatum, 120 h, irrespective of the treatment group"}, "[7]": {"settings": "nucleus accumbens, 120 h, 5-MeO-DMT alone"}}}
{"smiles": "COC(=O)[C@H]1[C@@H](OC(=O)c2ccccc2)C[C@@H]2CC[C@H]1N2C.Cl", "note": "[cocaine, cocaine hydrochloride, reference compound]", "values": [{"measurement": "reduction in G9a expression", "setting": "G9a", "result": 19, "unit": "%"}]}
{"smiles": "COc1ccc2[nH]cc(CCN(C)C)c2c1", "note": "[5-MeO-DMT, 5-methoxy-N,N-dimethyltryptamine]", "values": [{"measurement": "primary metabolic pathways", "setting": "[1]", "result": "deamination by MAO-A and O-demethylation by cytochrome P450 2D6 (CYP2D6)"}, {"measurement": "end of effects", "setting": "[2]", "result": "60 to 70", "unit": "min"}, {"measurement": "peak of effects", "setting": "[2]", "result": "35 to 40", "unit": "min"}, {"measurement": "start of effects", "setting": "[2]", "result": "3 to 4", "unit": "min"}, {"measurement": "pCREB levels", "setting": "pCREB; PFC, cocaine+20 mg/kg 5-MeO-DMT relative to saline+20 mg/kg", "result": "decrease in pCREB"}, {"measurement": "proportion of pCREB relative to total CREB", "setting": "pCREB; PFC, 24 h and 120 h, all treatments", "result": "no change"}, {"measurement": "pCREB levels", "setting": "pCREB; amygdala, 20 mg/kg 5-MeO-DMT in saline-treated animals", "result": "increased"}, {"measurement": "proportion of pCREB", "setting": "pCREB; amygdala, 24 h and 120 h, any of the treatments", "result": "unchanged by any of the treatments"}, {"measurement": "Ki", "setting": "5-HT1AR", "result": "< 0.01", "unit": "µM"}, {"measurement": "number of the top 10 dysregulated pathways corrected", "setting": "[3]", "result": 9, "unit": "pathways"}, {"measurement": "top 10 cocaine-dysregulated biological pathways corrected", "setting": "[3]", "result": 90, "unit": "%"}, {"measurement": "acute toxic signs", "setting": "[4]", "result": "dose-dependently produce ataxia, mydriasis, head nodding, tremor, convulsion and shivering"}, {"measurement": "FosB expression", "setting": "FosB; PFC, 24 h and 120 h, any of the treatments", "result": "unchanged by any of the treatments"}, {"measurement": "FosB expression", "setting": "FosB; amygdala, 24 h, any treatment", "result": "no change in FosB levels"}, {"measurement": "FosB expression", "setting": "FosB; amygdala, 120 h, cocaine x 5-MeO-DMT interaction p=0.0353", "result": "no post hoc differences between treatment groups"}, {"measurement": "FosB expression", "setting": "FosB; [5]", "result": "does not regulate the expression"}, {"measurement": "FosB expression", "setting": "FosB; [6]", "result": "no change in expression levels"}, {"measurement": "FosB expression", "setting": "FosB; nucleus accumbens, 24 h, cocaine+10 mg/kg 5-MeO-DMT (1 h post last cocaine)", "result": "increase FosB expression"}, {"measurement": "FosB expression", "setting": "FosB; nucleus accumbens, 24 h, cocaine+20 mg/kg 5-MeO-DMT (1 h post last cocaine)", "result": "no significant difference in FosB expression levels relative to the saline+vehicle control group"}, {"measurement": "FosB expression", "setting": "FosB; nucleus accumbens, 24 h, saline+10 mg/kg 5-MeO-DMT single dose", "result": "not 10 mg/kg increasing expression"}, {"measurement": "FosB expression", "setting": "FosB; nucleus accumbens, 24 h, saline+20 mg/kg 5-MeO-DMT single dose", "result": "increasing expression"}, {"measurement": "FosB expression", "setting": "FosB; [7]", "result": "does not persist to 120 hours"}, {"measurement": "ΔFosB expression", "setting": "ΔFosB; PFC, 24 h, cocaine alone or 5-MeO-DMT alone", "result": "Neither treatment changes expression alone"}, {"measurement": "ΔFosB expression", "setting": "ΔFosB; PFC, 24 h, cocaine+10 mg/kg 5-MeO-DMT", "result": "increases expression relative to 10 mg/kg 5-MeO-DMT alone"}, {"measurement": "ΔFosB expression", "setting": "ΔFosB; PFC, 24 h, cocaine+20 mg/kg 5-MeO-DMT (increase seen with 10 mg/kg)", "result": "not replicated"}, {"measurement": "ΔFosB expression", "setting": "ΔFosB; amygdala, 24 h, 5-MeO-DMT alone", "result": "no effect"}, {"measurement": "ΔFosB expression", "setting": "ΔFosB; amygdala, 24 h, cocaine+20 mg/kg 5-MeO-DMT", "result": "normalized levels in the cocaine treated animals comparable to the control group"}, {"measurement": "ΔFosB expression", "setting": "ΔFosB; amygdala, 120 h, 20 mg/kg 5-MeO-DMT relative to control", "result": "dose-dependent increase"}, {"measurement": "ΔFosB expression", "setting": "ΔFosB; [5]", "result": "does not regulate the expression"}, {"measurement": "ΔFosB expression", "setting": "ΔFosB; dorsal striatum, 24 h, cocaine+10 mg/kg 5-MeO-DMT relative to control", "result": "significant increase in ΔFosB expression"}, {"measurement": "ΔFosB expression", "setting": "ΔFosB; dorsal striatum, 24 h, cocaine+20 mg/kg 5-MeO-DMT", "result": "returns the cocaine-induced increase in ΔFosB to levels comparable with control"}, {"measurement": "ΔFosB expression", "setting": "ΔFosB; [6]", "result": "no change in expression levels"}, {"measurement": "ΔFosB expression", "setting": "ΔFosB; nucleus accumbens, 24 h, cocaine+20 mg/kg 5-MeO-DMT", "result": "expression levels remain elevated in the combo group relative to control"}, {"measurement": "ΔFosB expression", "setting": "ΔFosB; nucleus accumbens, 24 h, saline+10 mg/kg 5-MeO-DMT", "result": "increased"}, {"measurement": "ΔFosB expression", "setting": "ΔFosB; nucleus accumbens, 24 h, saline+20 mg/kg 5-MeO-DMT", "result": "increased"}, {"measurement": "ΔFosB expression", "setting": "ΔFosB; [7]", "result": "does not persist to 120 hours"}]}
